Measurements taken from PMC5266325, “The Rice Dynamin-Related Protein OsDRP1E Negatively Regulates Programmed Cell Death by Controlling the Release of Cytochrome c from Mitochondria” (PLoS Pathogens, 2017).
Positions count from the first letter of the chain named.

What was measured:
OsDRP1E (MBP-OsDRP1E) [1] = molecular target: T1, OsDRP1E (MBP-OsDRP1E) (Oryza sativa, UniProt Q650Z3, E409V); experiment: colorimetric phosphate release GTPase assay; type: biochemical; settings: MBP fusion; time course and 2, 5, 10 ug protein; lower activity than wild type
T1 construct: gene Os09g0572900; tag kept; native protein 70 kDa
T1 sequence (Q650Z3 1-626 E409V): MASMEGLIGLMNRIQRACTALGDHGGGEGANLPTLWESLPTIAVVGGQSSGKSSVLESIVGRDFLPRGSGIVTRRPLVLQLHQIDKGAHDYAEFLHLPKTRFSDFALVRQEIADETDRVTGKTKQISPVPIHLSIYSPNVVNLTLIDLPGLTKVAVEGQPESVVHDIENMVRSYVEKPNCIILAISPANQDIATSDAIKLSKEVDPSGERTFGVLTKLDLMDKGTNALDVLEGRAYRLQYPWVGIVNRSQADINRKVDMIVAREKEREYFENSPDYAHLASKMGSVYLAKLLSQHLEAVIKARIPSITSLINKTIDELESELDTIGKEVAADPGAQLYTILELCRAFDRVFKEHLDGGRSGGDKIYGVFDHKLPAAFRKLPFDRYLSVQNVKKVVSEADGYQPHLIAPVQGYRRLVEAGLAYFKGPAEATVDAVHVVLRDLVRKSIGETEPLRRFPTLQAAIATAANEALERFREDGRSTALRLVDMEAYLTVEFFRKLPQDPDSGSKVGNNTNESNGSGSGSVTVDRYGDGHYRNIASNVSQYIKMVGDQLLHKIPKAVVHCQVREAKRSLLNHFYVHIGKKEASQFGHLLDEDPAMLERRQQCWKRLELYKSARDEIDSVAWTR

OsDRP1E (MBP-OsDRP1E) [2] = molecular target: T2, OsDRP1E (MBP-OsDRP1E) (Oryza sativa, UniProt Q650Z3); experiment: colorimetric phosphate release GTPase assay; type: biochemical; settings: MBP fusion; time course and 2, 5, 10 ug protein
T2 construct: gene Os09g0572900; tag kept; native protein 70 kDa
T2 sequence (Q650Z3 1-626): T1 sequence (Q650Z3 1-626 E409V) with V409E

SMILES: Nc1nc2c(ncn2[C@@H]2O[C@H](COP(=O)(O)OP(=O)(O)OP(=O)(O)O)[C@@H](O)[C@H]2O)c(=O)[nH]1 [GTP]
- colorimetric phosphate release GTPase assay (OsDRP1E (MBP-OsDRP1E) [1]): both MBP-OsDRP1E and MBP-E409V displayed catalytic activity towards the substrate GTP
- colorimetric phosphate release GTPase assay (OsDRP1E (MBP-OsDRP1E) [2]): both MBP-OsDRP1E and MBP-E409V displayed catalytic activity towards the substrate GTP
